Source: ChEMBL document CHEMBL4049403, “Oligo-aspartic acid conjugates with benzo[c][2,6]naphthyridine-8-carboxylic acid scaffold as picomolar inhibitors of CK2” (Bioorg Med Chem, 2017)
Where a SMILES comes first, the peptide text is derived from it. The star is where a group is joined. X1 = O=C(O)c1ccc2c(c1)nc(OCCCCCCCCC(=O)*)c1ccncc12

What was measured:
[1] = molecular target: Insulin-like growth factor 1 receptor (Homo sapiens) (UniProt P08069); assay: Inhibition of human IGF-1R assessed as residual activity at 1 uM in presence of [33P]ATP by filter binding assay relative to control
[2] = molecular target: Discoidin domain-containing receptor 2 (Homo sapiens) (UniProt Q16832); assay: Inhibition of human DDR2 assessed as residual activity at 1 uM in presence of [33P]ATP by filter binding assay relative to control
Sequence of Discoidin domain-containing receptor 2 (Homo sapiens) (Q16832 whole entry, the tested form may be a part, canonical isoform): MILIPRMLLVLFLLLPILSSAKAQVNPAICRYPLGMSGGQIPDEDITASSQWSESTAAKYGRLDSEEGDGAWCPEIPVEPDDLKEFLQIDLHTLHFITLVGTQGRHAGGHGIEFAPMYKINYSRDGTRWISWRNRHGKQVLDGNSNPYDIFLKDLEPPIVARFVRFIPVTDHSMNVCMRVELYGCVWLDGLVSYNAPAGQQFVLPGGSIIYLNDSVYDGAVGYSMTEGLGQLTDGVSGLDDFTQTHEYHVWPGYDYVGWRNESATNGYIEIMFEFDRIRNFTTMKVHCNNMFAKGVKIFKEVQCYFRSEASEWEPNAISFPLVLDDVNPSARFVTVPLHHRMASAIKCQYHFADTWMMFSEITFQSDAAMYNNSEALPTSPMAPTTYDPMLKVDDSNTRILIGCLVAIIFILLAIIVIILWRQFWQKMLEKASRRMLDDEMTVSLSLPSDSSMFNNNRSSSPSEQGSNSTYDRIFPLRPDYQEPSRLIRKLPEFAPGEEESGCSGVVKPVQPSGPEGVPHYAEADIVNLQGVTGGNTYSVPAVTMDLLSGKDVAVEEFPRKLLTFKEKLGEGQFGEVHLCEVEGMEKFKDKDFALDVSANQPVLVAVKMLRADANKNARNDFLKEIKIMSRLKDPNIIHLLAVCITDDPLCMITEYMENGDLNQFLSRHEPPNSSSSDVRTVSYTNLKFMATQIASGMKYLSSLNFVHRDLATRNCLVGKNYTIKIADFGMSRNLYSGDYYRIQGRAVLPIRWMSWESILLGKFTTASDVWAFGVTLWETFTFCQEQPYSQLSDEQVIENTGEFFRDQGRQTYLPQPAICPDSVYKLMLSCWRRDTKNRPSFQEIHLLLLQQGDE

[3] = molecular target: Casein kinase I isoform delta (Homo sapiens) (UniProt P48730); assay: Inhibition of human CK1delta assessed as residual activity at 1 uM in presence of [33P]ATP by filter binding assay relative to control
Sequence of Casein kinase I isoform delta (Homo sapiens) (P48730 whole entry, looked up, canonical isoform): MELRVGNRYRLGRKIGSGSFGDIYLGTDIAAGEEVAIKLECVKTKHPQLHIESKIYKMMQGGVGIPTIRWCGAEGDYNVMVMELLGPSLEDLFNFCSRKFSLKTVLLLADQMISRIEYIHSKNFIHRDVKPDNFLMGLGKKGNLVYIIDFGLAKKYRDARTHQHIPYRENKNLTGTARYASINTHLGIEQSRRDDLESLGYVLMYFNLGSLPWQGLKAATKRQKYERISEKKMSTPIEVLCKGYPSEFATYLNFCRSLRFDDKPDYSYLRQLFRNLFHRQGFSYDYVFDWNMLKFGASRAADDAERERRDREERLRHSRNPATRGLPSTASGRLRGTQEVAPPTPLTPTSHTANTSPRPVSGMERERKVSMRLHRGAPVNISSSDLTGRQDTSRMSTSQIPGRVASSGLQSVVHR

[4] = molecular target: Mitogen-activated protein kinase 7 (Homo sapiens) (UniProt Q13164); assay: Inhibition of human ERK5 assessed as residual activity at 1 uM in presence of 33P-ATP by filter-binding assay relative to control
[5] = molecular target: Dual specificity mitogen-activated protein kinase kinase 1 (Homo sapiens) (UniProt Q02750); assay: Inhibition of human MKK1 assessed as residual activity at 1 uM in presence of [33P]ATP by filter binding assay relative to control
Sequence of Dual specificity mitogen-activated protein kinase kinase 1 (Homo sapiens) (Q02750 whole entry): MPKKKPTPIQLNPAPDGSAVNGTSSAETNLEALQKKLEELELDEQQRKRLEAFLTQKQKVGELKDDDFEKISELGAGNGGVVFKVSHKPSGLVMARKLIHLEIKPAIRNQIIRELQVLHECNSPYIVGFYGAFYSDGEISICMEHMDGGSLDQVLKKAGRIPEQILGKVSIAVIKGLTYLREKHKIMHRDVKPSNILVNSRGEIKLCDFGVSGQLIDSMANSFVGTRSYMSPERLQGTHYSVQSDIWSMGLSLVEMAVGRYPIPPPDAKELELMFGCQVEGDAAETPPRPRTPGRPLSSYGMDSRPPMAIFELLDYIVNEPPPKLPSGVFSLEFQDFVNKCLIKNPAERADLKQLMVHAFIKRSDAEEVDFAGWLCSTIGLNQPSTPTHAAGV

[6] = molecular target: Tyrosine-protein kinase CSK (Homo sapiens) (UniProt P41240); assay: Inhibition of human CSK assessed as residual activity at 1 uM in presence of [33P]ATP by filter binding assay relative to control
[7] = molecular target: Mitogen-activated protein kinase kinase kinase 11 (Homo sapiens) (UniProt Q16584); assay: Inhibition of human MLK3 assessed as residual activity at 1 uM in presence of 33P-ATP by filter-binding assay relative to control
[8] = molecular target: Eukaryotic translation initiation factor 2-alpha kinase 3 (Homo sapiens) (UniProt Q9NZJ5); assay: Inhibition of human EIF2AK3 assessed as residual activity at 1 uM in presence of 33P-ATP by filter-binding assay relative to control
[9] = molecular target: RAC-alpha serine/threonine-protein kinase (Homo sapiens) (UniProt P31749); assay: Inhibition of human PKBa assessed as residual activity at 1 uM in presence of [33P]ATP by filter binding assay relative to control
Sequence of RAC-alpha serine/threonine-protein kinase (Homo sapiens) (P31749 whole entry): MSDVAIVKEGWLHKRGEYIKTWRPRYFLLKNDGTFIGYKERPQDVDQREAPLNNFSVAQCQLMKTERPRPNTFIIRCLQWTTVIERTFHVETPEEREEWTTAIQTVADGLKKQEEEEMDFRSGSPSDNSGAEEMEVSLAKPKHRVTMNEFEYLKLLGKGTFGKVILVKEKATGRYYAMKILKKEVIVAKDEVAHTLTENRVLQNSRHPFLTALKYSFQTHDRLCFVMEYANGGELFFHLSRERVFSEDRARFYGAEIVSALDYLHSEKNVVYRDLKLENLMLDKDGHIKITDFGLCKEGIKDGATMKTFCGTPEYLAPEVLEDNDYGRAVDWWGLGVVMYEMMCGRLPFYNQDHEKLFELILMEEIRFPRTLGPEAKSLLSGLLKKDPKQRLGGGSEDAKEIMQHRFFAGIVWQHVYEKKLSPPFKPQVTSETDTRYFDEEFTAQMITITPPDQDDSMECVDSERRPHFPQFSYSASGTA

[10] = molecular target: Serine/threonine-protein kinase pim-2 (Homo sapiens) (UniProt Q9P1W9); assay: Inhibition of human PIM2 assessed as residual activity at 1 uM in presence of [33P]ATP by filter binding assay relative to control
[11] = molecular target: Ephrin type-B receptor 1 (Homo sapiens) (UniProt P54762); assay: Inhibition of human EPHB1 assessed as residual activity at 1 uM in presence of [33P]ATP by filter binding assay relative to control
[12] = molecular target: CDK2/Cyclin A2 (Homo sapiens) (UniProt P24941+P20248); assay: Inhibition of human CDK2/Cyclin A assessed as residual activity at 1 uM in presence of [33P]ATP by filter binding assay relative to control; format: protein-complex assay
[13] = molecular target: Calcium/calmodulin-dependent protein kinase type 1 (Homo sapiens) (UniProt Q14012); assay: Inhibition of human CAMK1 assessed as residual activity at 1 uM in presence of [33P]ATP by filter binding assay relative to control
[14] = molecular target: Serine/threonine-protein kinase WNK1 (Homo sapiens) (UniProt Q9H4A3); assay: Inhibition of human WNK1 assessed as residual activity at 1 uM in presence of [33P]ATP by filter binding assay relative to control
Sequence of Serine/threonine-protein kinase WNK1 (Homo sapiens) (Q9H4A3 whole entry, looked up): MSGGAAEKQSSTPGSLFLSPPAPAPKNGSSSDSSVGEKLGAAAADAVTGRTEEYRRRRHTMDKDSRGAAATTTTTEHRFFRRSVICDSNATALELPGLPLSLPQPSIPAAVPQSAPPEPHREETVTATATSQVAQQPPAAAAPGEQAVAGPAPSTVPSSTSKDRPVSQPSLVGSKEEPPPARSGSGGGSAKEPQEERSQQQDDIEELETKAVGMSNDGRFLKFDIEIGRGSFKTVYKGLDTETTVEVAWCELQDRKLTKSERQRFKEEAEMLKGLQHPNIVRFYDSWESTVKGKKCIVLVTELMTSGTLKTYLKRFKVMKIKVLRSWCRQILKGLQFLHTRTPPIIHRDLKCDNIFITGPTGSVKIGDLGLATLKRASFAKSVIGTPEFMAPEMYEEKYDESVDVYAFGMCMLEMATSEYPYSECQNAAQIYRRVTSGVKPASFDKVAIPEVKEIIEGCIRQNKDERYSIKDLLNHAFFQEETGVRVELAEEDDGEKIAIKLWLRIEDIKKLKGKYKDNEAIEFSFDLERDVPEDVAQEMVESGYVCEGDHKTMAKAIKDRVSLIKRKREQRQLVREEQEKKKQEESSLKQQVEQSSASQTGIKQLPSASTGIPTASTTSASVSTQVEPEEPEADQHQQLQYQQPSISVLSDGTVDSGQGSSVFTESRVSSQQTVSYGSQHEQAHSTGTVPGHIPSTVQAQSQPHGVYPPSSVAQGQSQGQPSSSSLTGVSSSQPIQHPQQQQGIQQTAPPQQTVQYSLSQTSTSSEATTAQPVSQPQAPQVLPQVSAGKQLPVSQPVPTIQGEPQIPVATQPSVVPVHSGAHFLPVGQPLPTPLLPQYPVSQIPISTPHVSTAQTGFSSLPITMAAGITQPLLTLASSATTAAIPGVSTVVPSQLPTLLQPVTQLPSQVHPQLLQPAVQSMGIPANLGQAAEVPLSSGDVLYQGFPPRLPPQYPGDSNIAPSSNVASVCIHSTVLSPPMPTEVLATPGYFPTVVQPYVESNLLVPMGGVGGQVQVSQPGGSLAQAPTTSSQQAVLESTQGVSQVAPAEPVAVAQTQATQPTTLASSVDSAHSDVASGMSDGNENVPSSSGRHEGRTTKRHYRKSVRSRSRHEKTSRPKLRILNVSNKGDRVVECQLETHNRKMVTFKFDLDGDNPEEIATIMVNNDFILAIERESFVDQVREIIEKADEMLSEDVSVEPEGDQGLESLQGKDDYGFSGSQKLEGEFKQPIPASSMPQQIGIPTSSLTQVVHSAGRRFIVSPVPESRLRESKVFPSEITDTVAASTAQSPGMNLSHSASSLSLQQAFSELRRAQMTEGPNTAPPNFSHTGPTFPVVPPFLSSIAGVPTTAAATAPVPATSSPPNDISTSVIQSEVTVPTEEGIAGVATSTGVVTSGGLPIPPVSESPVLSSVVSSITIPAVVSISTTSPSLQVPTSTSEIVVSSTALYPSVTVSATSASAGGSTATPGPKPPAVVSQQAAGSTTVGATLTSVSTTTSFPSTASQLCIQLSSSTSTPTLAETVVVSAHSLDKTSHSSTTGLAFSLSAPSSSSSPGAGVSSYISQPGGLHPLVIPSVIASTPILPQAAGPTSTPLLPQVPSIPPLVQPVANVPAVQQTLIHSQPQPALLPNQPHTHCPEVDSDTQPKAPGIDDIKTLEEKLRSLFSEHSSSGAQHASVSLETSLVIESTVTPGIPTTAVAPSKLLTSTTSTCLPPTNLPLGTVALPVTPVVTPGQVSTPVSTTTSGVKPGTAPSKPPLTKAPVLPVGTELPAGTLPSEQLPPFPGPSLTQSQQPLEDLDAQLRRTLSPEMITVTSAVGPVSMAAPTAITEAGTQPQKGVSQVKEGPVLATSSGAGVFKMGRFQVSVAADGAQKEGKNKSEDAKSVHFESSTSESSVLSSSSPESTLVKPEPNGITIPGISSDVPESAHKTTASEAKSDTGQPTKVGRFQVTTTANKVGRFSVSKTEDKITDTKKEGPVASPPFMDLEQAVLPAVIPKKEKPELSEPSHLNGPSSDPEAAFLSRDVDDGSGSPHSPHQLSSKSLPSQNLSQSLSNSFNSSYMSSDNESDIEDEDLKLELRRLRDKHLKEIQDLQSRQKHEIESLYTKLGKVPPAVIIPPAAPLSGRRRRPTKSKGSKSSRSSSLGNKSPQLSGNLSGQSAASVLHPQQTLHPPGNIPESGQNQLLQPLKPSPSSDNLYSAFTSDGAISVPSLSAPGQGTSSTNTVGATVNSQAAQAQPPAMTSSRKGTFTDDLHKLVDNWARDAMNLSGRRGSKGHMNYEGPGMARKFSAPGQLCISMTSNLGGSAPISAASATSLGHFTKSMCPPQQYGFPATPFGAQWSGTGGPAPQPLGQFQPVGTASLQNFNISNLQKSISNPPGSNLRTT

[15] = molecular target: Serine/threonine-protein kinase TBK1 (Homo sapiens) (UniProt Q9UHD2); assay: Inhibition of human TBK1 assessed as residual activity at 1 uM in presence of 33P-ATP by filter-binding assay relative to control
[16] = molecular target: Casein kinase II subunit alpha (Homo sapiens, UniProt P68400); assay: Inhibition of ARC-1504 binding to CK2alpha (unknown origin) (1 to 335 residues) measured after 15 mins by fluorescence anisotropic method
Sequence of Casein kinase II subunit alpha (P68400 whole entry, the tested form may be a part): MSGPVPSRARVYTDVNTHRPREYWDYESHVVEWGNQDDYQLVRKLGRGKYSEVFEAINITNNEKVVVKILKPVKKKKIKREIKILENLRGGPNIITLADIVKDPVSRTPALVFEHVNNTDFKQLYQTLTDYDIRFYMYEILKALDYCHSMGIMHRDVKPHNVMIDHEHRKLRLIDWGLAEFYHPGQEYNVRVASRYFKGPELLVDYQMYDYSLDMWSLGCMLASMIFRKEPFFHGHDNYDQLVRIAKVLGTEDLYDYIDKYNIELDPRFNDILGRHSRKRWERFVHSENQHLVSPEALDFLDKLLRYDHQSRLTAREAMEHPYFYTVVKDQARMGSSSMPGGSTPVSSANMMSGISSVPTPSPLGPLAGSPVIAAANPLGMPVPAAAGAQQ

[17] = molecular target: Serine/threonine-protein kinase PAK 6 (Homo sapiens) (UniProt Q9NQU5); assay: Inhibition of human PAK6 assessed as residual activity at 1 uM in presence of [33P]ATP by filter binding assay relative to control
[18] = molecular target: Serine/threonine-protein kinase tousled-like 1 (Homo sapiens) (UniProt Q9UKI8); assay: Inhibition of human TLK1 assessed as residual activity at 1 uM in presence of 33P-ATP by filter-binding assay relative to control
[19] = molecular target: Insulin receptor (Homo sapiens) (UniProt P06213); assay: Inhibition of human IR assessed as residual activity at 1 uM in presence of [33P]ATP by filter binding assay relative to control
[20] = molecular target: Mitogen-activated protein kinase kinase kinase kinase 5 (Homo sapiens) (UniProt Q9Y4K4); assay: Inhibition of human MAP4K5 assessed as residual activity at 1 uM in presence of [33P]ATP by filter binding assay relative to control
[21] = molecular target: Tau-tubulin kinase 1 (Homo sapiens) (UniProt Q5TCY1); assay: Inhibition of human TTBK1 assessed as residual activity at 1 uM in presence of [33P]ATP by filter binding assay relative to control
[22] = molecular target: NUAK family SNF1-like kinase 1 (Homo sapiens) (UniProt O60285); assay: Inhibition of human NUAK1 assessed as residual activity at 1 uM in presence of [33P]ATP by filter binding assay relative to control
[23] = molecular target: Serine/threonine-protein kinase Chk1 (Homo sapiens) (UniProt O14757); assay: Inhibition of human CHK1 assessed as residual activity at 1 uM in presence of [33P]ATP by filter binding assay relative to control
[24] = molecular target: Dual specificity protein kinase TTK (Homo sapiens) (UniProt P33981); assay: Inhibition of human TTK assessed as residual activity at 1 uM in presence of 33P-ATP by filter-binding assay relative to control
[25] = molecular target: Mitogen-activated protein kinase 14 (Homo sapiens) (UniProt Q16539); assay: Inhibition of human p38a MAPK assessed as residual activity at 1 uM in presence of [33P]ATP by filter binding assay relative to control
[26] = molecular target: CDK9/cyclin T1 (Homo sapiens) (UniProt O60563+P50750); assay: Inhibition of human CDK9-CyclinT1 assessed as residual activity at 1 uM in presence of [33P]ATP by filter binding assay relative to control; format: protein-complex assay
[27] = test system: Serine/threonine-protein kinase MAP4K2 (Homo sapiens); assay: Inhibition of human GCK assessed as residual activity at 1 uM in presence of 33P-ATP by filter-binding assay relative to control
[28] = molecular target: Serine/threonine-protein kinase pim-1 (Homo sapiens) (UniProt P11309); assay: Inhibition of human PIM1 assessed as residual activity at 1 uM in presence of 33P-ATP by filter-binding assay relative to control
[29] = molecular target: Serine/threonine-protein kinase Sgk1 (Homo sapiens) (UniProt O00141); assay: Inhibition of human SGK1 assessed as residual activity at 1 uM in presence of [33P]ATP by filter binding assay relative to control

Compound: NCCCC[C@H](NC(=O)[C@H](CC(=O)O)NC(=O)[C@H](CC(=O)O)NC(=O)[C@H](CC(=O)O)NC(=O)[C@H](CC(=O)O)NC(=O)[C@H](CC(=O)O)NC(=O)[C@H](CC(=O)O)NC(=O)CCCCCCCCOc1nc2cc(C(=O)O)ccc2c2cnccc12)C(=O)O (X1-DDDDDDK-OH)
- Activity [1]: 79%
- Activity [2]: 117%
- Activity [3]: 82%
- Activity [4]: 39%
- Activity [5]: 86%
- Activity [6]: 77%
- Activity [7]: 22%
- Activity [8]: 47%
- Activity [9]: 89%
- Activity [10]: 80%
- Activity [11]: 89%
- Activity [12]: 82%
- Activity [13]: 89%
- Activity [14]: 96%
- Activity [15]: 34%
- Kd ([16]; read-out: Kd): 0.037 nM
- Kd ([16]; read-out: pKd (converted)): 0.0316 nM
- Activity [17]: 110%
- Activity [18]: 63%
- Activity [19]: 85%
- Activity [20]: 87%
- Activity [21]: 97%
- Activity [22]: 75%
- Activity [23]: 91%
- Activity [24]: 48%
- Activity [25]: 89%
- Activity [26]: 108%
- Activity [27]: 15%
- Activity [28]: 64%
- Activity [29]: 84%
